The numbers were not newly measured in PMC9227013, “Synthesis, Anticancer Potential and Comprehensive Toxicity Studies of Novel Brominated Derivatives of Bacterial Biopigment Prodigiosin from Serratia marcescens ATCC 27117” (Molecules, 2022), which cites them from elsewhere.

What all share (design): method as in printed
One series deals with WI-38-40 (fibroblasts). As to conditions: WI-38-40, 72 h exposure; literature, ref not given; cited from earlier work.
The subject of series [1] is HBL-100 (breast epithelial cells). To be noted: HBL-100, 72 h exposure; literature, ref not given; cited from earlier work.
The next series relates to breast cancer cell lines. As to conditions: breast cancer cells, 72 h exposure; literature, ref not given; cited from earlier work.

A word on the IC50: it is the concentration needed to halve the response being measured. For the substance cycloprodigiosin [cPG], the entries for the “dose for growth inhibition” value (in the series with WI-38-40 (fibroblasts); in series [1]) were 0.73 µg/mL and 0.57 µg/mL, respectively. In addition, the IC50 in the series on breast cancer cell lines is 0.15 to 0.20 µg/mL.
